According to ChEMBL document CHEMBL5390218, “Benzimidazole derivatives as tubulin polymerization inhibitors: Design, synthesis and in vitro cytotoxicity studies” (Bioorg Med Chem Lett, 2023):
Active and inactive are the calls of the source. The rule behind the calls is not given here.

Experiments:
SK-MEL-28 [1] = assay: Induction of apoptosis in human SK-MEL-28 cells assessed as late apoptotic cells at 5 uM incubated for 24 hrs by Annexin V-FITC/PI dual staining based flow cytometry analysis (reference value: 0.1%); format: functional
[2] = Selectivity index, ratio of IC50 for NRK-52E cells to ratio of IC50 for human MCF7 cells; format: toxicity; details: rat (NRK-52E), NRK-52E cells versus MCF7 cells, read-out: Selectivity Index
SK-MEL-28 [3] = assay: Induction of morphological changes in human SK-MEL-28 cells assessed as appearance of nuclei at 1 to 5 uM measured after 48 hrs DAPI staining based analysis; format: functional, cell-based; details: dose 1-5 µM
SK-MEL-28 [4] = assay: Anticancer activity against human SK-MEL-28 cells assessed as inhibition in cell growth measured after 72 hrs by MTT assay; format: functional, cell-based; details: SK-MEL-28, 72 h
SK-MEL-28 [5] = assay: Induction of cell cycle arrest in human SK-MEL-28 cells assessed as accumulation of cells at G2 phase at 1 uM measured after 48 hrs by PI staining based flow cytometry (reference value: 9.17%); format: functional
[6] = Cytotoxicity against NRK-52E cells assessed as inhibition in cell growth measured after 72 hrs by MTT assay; format: toxicity, cell-based; details: rat
SK-MEL-28 [7] = assay: Induction of morphological changes in human SK-MEL-28 cells assessed as bright fragmented nuclei at 1 to 5 uM measured after 48 hrs DAPI staining based analysis; format: functional, cell-based; details: dose 1-5 µM
SK-MEL-28 [8] = assay: Inhibition of cell migration in human SK-MEL-28 cells at 1 to 5 uM incubated for 0 to 48 hrs by phase-contrast microscopy; format: functional, cell-based; details: dose 1-5 µM, time 0-48 hrs
SK-MEL-28 [9] = assay: Induction of mitochondrial membrane potential depolarization in human SK-MEL-28 cells assessed as J-monomer level by measuring green fluorescence intensity at 5 uM incubated for 48 hrs by JC-1 staining based analysis (reference value: 0.8%); format: functional
Tubulin (Homo sapiens) [10] = molecular target: T1, Tubulin (Homo sapiens) (UniProt P68371+Q9H4B7+P0DPH7+P68366+Q13509+Q71U36+P04350+Q3ZCM7+P07437+P68363+Q9BQE3+Q6PEY2+Q13885+Q9BVA1+Q9BUF5); assay: Inhibition of tubulin polymerization (unknown origin) at 6 uM incubated for 1 hr relative to control; format: protein-complex assay
SK-MEL-28 [11] = assay: Induction of cell cycle arrest in human SK-MEL-28 cells assessed as accumulation of cells at S phase at 2.5 uM measured after 48 hrs by PI staining based flow cytometry (reference value: 16.5%); format: functional
SK-MEL-28 [12] = assay: Induction of morphological changes in human SK-MEL-28 cells assessed as bright pyknotic nuclei at 1 to 5 uM measured after 48 hrs DAPI staining based analysis; format: functional, cell-based; details: dose 1-5 µM
[13] = Selectivity index, ratio of IC50 for NRK-52E cells to ratio of IC50 for mouse B16-F10 cells; format: toxicity; details: NRK-52E cells versus B16-F10 cells, read-out: Selectivity Index
Tubulin (Homo sapiens) [14] = molecular target: T1, Tubulin (Homo sapiens); assay: Inhibition of tubulin polymerization (unknown origin) at 3 uM incubated for 1 hr relative to control; format: protein-complex assay
SK-MEL-28 [15] = assay: Induction of cell cycle arrest in human SK-MEL-28 cells assessed as accumulation of cells at G0-G1 phase at 2.5 uM measured after 48 hrs by PI staining based flow cytometry (reference value: 74.32%); format: functional
[16] = Selectivity index, ratio of IC50 for NRK-52E cells to ratio of IC50 for human SK-MEL-28 cells
SK-MEL-28 [17] = assay: Induction of apoptosis in human SK-MEL-28 cells assessed as late apoptotic cells at 2.5 uM incubated for 24 hrs by Annexin V-FITC/PI dual staining based flow cytometry analysis (reference value: 0.1%); format: functional
Tubulin = assay: (§1) Inhibition of tubulin polymerization (unknown origin) incubated for 1 hr; format: protein-complex assay, Homo sapiens
Tubulin (Homo sapiens) [18] = molecular target: T1, Tubulin (Homo sapiens); assay: as §1; format: protein-complex assay; details: dose 0.75-12 µM
SK-MEL-28 [19] = assay: Induction of cell cycle arrest in human SK-MEL-28 cells assessed as accumulation of cells at G2 phase at 2.5 uM measured after 48 hrs by PI staining based flow cytometry (reference value: 9.17%); format: functional
Tubulin (Homo sapiens) [20] = molecular target: T1, Tubulin (Homo sapiens); assay: Inhibition of tubulin polymerization (unknown origin) at 0.75 uM incubated for 1 hr relative to control; format: protein-complex assay
SK-MEL-28 [21] = assay: Induction of apoptosis in human SK-MEL-28 cells assessed as necrotic cells at 1 uM incubated for 24 hrs by Annexin V-FITC/PI staining based flow cytometry analysis (reference value: 0.1%); format: functional
SK-MEL-28 [22] = assay: Induction of cell cycle arrest in human SK-MEL-28 cells assessed as accumulation of cells at G0-G1 phase at 1 uM measured after 48 hrs by PI staining based flow cytometry (reference value: 74.32%); format: functional
Tubulin (Homo sapiens) [23] = molecular target: T1, Tubulin (Homo sapiens); assay: Inhibition of tubulin polymerization (unknown origin) at 12 uM incubated for 1 hr relative to control; format: protein-complex assay
SK-MEL-28 [24] = assay: Induction of mitochondrial membrane potential depolarization in human SK-MEL-28 cells assessed as J-monomer level by measuring green fluorescence intensity at 1 uM incubated for 48 hrs by JC-1 staining based analysis (reference value: 0.8%); format: functional
SK-MEL-28 [25] = assay: Induction of mitochondrial membrane potential changes in human SK-MEL-28 cells assessed as J-aggregate level by measuring red fluorescence intensity at 5 uM incubated for 48 hrs by JC-1 staining based analysis (reference value: 98.9%); format: functional
SK-MEL-28 [26] = assay: Induction of apoptosis in human SK-MEL-28 cells assessed as live cells at 1 uM incubated for 24 hrs by Annexin V-FITC/PI dual staining based flow cytometry analysis (reference value: 99.9%); format: functional
SK-MEL-28 [27] = assay: Induction of apoptosis in human SK-MEL-28 cells assessed as necrotic cells at 5 uM incubated for 24 hrs by Annexin V-FITC/PI staining based flow cytometry analysis (reference value: 0.1%); format: functional
SK-MEL-28 [28] = assay: Induction of morphological changes in human SK-MEL-28 cells assessed as membrane blebbing by ethidium bromide/acridine orange staining based analysis; format: functional, cell-based; details: dose 1-5 µM
SK-MEL-28 [29] = assay: Inhibition of cell migration in human SK-MEL-28 cells at 1 to 5 uM incubated for 0 to 48 hrs by wound healing assay; format: functional, cell-based; details: dose 1-5 µM, time 0-48 hrs
SK-MEL-28 [30] = assay: Induction of apoptosis in human SK-MEL-28 cells assessed as early apoptotic cells at 5 uM incubated for 24 hrs by Annexin V-FITC/PI dual staining based flow cytometry analysis (reference value: 0.0%); format: functional
A549 = assay: Anticancer activity against human A549 cells assessed as inhibition in cell growth measured after 72 hrs by MTT assay; format: functional, cell-based; details: A549, 72 h
SK-MEL-28 [31] = assay: Induction of cell cycle arrest in human SK-MEL-28 cells assessed as accumulation of cells at S phase at 1 uM measured after 48 hrs by PI staining based flow cytometry (reference value: 16.5%); format: functional
SK-MEL-28 [32] = assay: Induction of mitochondrial membrane potential changes in human SK-MEL-28 cells assessed as J-aggregate level by measuring red fluorescence intensity at 1 uM incubated for 48 hrs by JC-1 staining based analysis (reference value: 98.9%); format: functional
SK-MEL-28 [33] = assay: Inhibition of colony formation in human SK-MEL-28 cells incubated for 48 hrs by crystal violet staining based colony formation assay; format: functional, cell-based; details: dose 1-5 µM
SK-MEL-28 [34] = assay: Induction of cell cycle arrest in human SK-MEL-28 cells assessed as accumulation of cells at S phase at 5 uM measured after 48 hrs by PI staining based flow cytometry (reference value: 16.5%); format: functional

Which Activity (SK-MEL-28 [1]) does the source give for COc1cc(-c2nc3cc(F)ccc3[nH]2)ccc1OCC(=O)N1CCc2ccccc21 here?
The Activity was 35.1%.

What about the selectivity ratio [2] of the same compound?
The selectivity ratio was 3.

What about the Activity (SK-MEL-28 [3]) of the same compound?
Its Activity is “Active”.

And the IC50 (SK-MEL-28 [4])?
Its IC50 is 2690 nM.

And the Activity (SK-MEL-28 [5])?
Its Activity is 15.96%.

What about the IC50 at 72 h [6] of the same compound?
The IC50 at 72 h was 53.8 µM.

And the Activity (SK-MEL-28 [7])?
The Activity was “Active”.

What about the inhibition (SK-MEL-28 [8]) of the same compound?
The inhibition was “Active”.

What about the Activity (SK-MEL-28 [9]) of the same compound?
The Activity was 14.9%.

And the inhibition (Tubulin (Homo sapiens) [10])?
Its inhibition is 52.4%.

And the Activity (SK-MEL-28 [11])?
The Activity was 23.71%.

And the Activity (SK-MEL-28 [12])?
Its Activity is “Active”.

What about the selectivity ratio [13] of the same compound?
Its selectivity ratio is 17.4.

What about the inhibition (Tubulin (Homo sapiens) [14]) of the same compound?
The inhibition was 47.4%.

And the Activity (SK-MEL-28 [15])?
The Activity was 51.45%.

What about the “Selectivity Index” value [16] of the same compound?
Its value is 20.

What about the Activity (SK-MEL-28 [17]) of the same compound?
The Activity was 20.2%.

What about the IC50 (Tubulin) of the same compound?
Its IC50 is 5.65 µM.

And the inhibition (Tubulin (Homo sapiens) [18])?
Its inhibition is “Dose-Dependent Effect”.

And the Activity (SK-MEL-28 [19])?
Its Activity is 24.82%.

What about the inhibition (Tubulin (Homo sapiens) [20]) of the same compound?
Its inhibition is 20.4%.

What about the Activity (SK-MEL-28 [21]) of the same compound?
Its Activity is 0%.

And the Activity (SK-MEL-28 [22])?
The Activity was 61.71%.

What about the inhibition (Tubulin (Homo sapiens) [23]) of the same compound?
Its inhibition is 64.1%.

And the Activity (SK-MEL-28 [24])?
Its Activity is 2%.

And the Activity (SK-MEL-28 [25])?
Its Activity is 85.1%.

What about the Activity (SK-MEL-28 [26]) of the same compound?
Its Activity is 28.5%.

What about the Activity (SK-MEL-28 [27]) of the same compound?
Its Activity is 13%.

What about the Activity (SK-MEL-28 [28]) of the same compound?
The Activity was “Dose-Dependent Effect”.

And the inhibition (SK-MEL-28 [29])?
Its inhibition is “Active”.

And the Activity (SK-MEL-28 [30])?
Its Activity is 1.3%.

What about the IC50 (A549) of the same compound?
The IC50 was 3.84 µM.

And the Activity (SK-MEL-28 [31])?
Its Activity is 22.3%.

What about the Activity (SK-MEL-28 [32]) of the same compound?
The Activity was 97.9%.

And the inhibition (SK-MEL-28 [33])?
The inhibition was “Dose-Dependent Effect”.

And the Activity (SK-MEL-28 [34])?
The Activity was 25.66%.
